# Where “and” joins values, the source holds several entries; their conditions need not be identical. Equal values may be shown once.
# Experiments:
# [1] = biological target: T1, KCa3.1 channel in A549-3R cells (Homo sapiens, UniProt O15554); assay: Co-staining of permeabilized A549-3R cells with fluorescent probe and antibodies (Protocols 7a and 7b); type: cell-based; conditions: for Average Green (in % ± SD): green = channels stained with 10b; for Average Red (in % ± SD): red = channels stained with antibodies
# T1 construct: the non-small cell lung cancer cell line A549-3R with a high expression of the KCa3.1 channel was employed; endogenous in cells; host or cells: A549-3R cells
# Method: The cells were stained with antibodies as described in Protocol 6. Afterwards, the cells were stained with 300 µL of staining solution and the mixture was incubated for 10 min at 4 °C in a dark chamber. Subsequently, the cells were washed five times with 1 mL of PBS and were used for fluorescence microscopy.
# The cells were treated as described in Protocol 5 to permeabilize the cells. Subsequently, staining solution was added and the cells were incubated for 10 min as described in Protocol 1. After washing the cells three times with PBS, Protocol 6 for the antibody staining was performed. Subsequently, the cells were used for fluorescence microscopy.
# For the co-staining experiments, the permeabilized A549-3R cells were first incubated with the antibodies and subsequently stained with bodipy-labeled senicapoc derivative 10b for 10 min (protocol 7a). The images were analyzed with the FITC filter set to observe the fluorescence generated by 10b and the TRITC filter set to observe the fluorescence emitted by the secondary antibody (Figure 5). In a further experiment, the order of staining modalities was reversed, i.e., the cells were first labeled with fluorescent probe 10b for 10 min and second with the antibodies (Figure 6).
# The obtained green, red and yellow dots were analyzed as described in the cell staining experiments above. The density of antibody-stained KCa3.1 channels (red dots) was higher than the density of KCa3.1 channels stained with bodipy-labeled senicapoc derivative 10b independent of the order of staining modality (Table 3). […] A successful co-staining was only counted when the distance between the signal peak maxima was ≤1 pixel.
# [2] = biological target: T1, KCa3.1 channel in A549-3R cells; assay: Blocking of staining by preincubation with senicapoc, fixed and living A549-3R cells (Protocols 3 and 4); type: cell-based; conditions: 30 µM senicapoc, 5 min, 4 °C
# Method: After fixation of the cells (Section 2.10.2), 300 µL of a 30 µM solution of senicapoc blocking solution was added to the glass bottom dish. The glass bottom dish was incubated for 5 min at 4 °C. After incubation, the solution was removed and a mixture of 150 µL of 60 µM senicapoc solution and 150 µL of 20 µM staining solution were added to the glass bottom dish. The cells were incubated for 10 min at 4 °C in a dark chamber. Subsequently, the cells were washed five times with PBS and then used for fluorescence microscopy.
# The cells were used without fixation. After incubating the cells for 24 h (Section 2.10.1), the medium was removed, and the cells were washed three times with 1 mL of PBS. Subsequently, the cells were stained as described in Protocol 3.
# In order to show the specificity of labeling KCa3.1 channels by the fluorescent probe 10b, fixed and living cells were preincubated with 30 µM senicapoc (3) for 5 min at 4 °C. […] The complete blockade of the punctate staining pattern confirms that the KCa3.1 channel was labeled with probe 10b.
# [3] = logP by HPLC retention time correlation; type: physicochemical; conditions: standardized reversed phase HPLC system
# Method: The logP values were recorded using HPLC analysis. Thus, the retention time of the test compound in a standardized reversed phase HPLC system is correlated with the retention times of compounds with known logP values.
# In addition to the logD7.4 values, the logP values of the fluorescent probes were recorded by HPLC, i.e., after calibration of the method, the retention times were correlated with the logP values or the compounds [33]. […] Fluorescein-labeled ligands 21a and 21b are considerably more polar than the corresponding bodipy-labeled senicapoc derivatives.
# [4] = logD7.4 by micro shake flask method (n-octanol / MOPS buffer pH 7.4, LC-MS); type: physicochemical; conditions: read-out: logD7.4 ± SD (Micro Shake Flask)
# Method: The logD7.4 values were recorded using the micro shake flask method. In this method, the test compound is distributed between n-octanol and MOPS buffer pH 7.4, and the amount of the compound in the buffer layer is determined by mass spectrometry.
# The new fluorescent dyes were designed to increase the polarity and reduce the non-specific labeling of lipophilic membranes of cells. Moreover, a higher polarity should lead to increased water solubility and thus improved handling of the dyes. The logD7.4 value was recorded as a measure of the polarity/lipophilicity using our recently published micro-shake flask method. According to this method, the amount of compound in the aqueous 3-morpholinopropanesulfonic acid (MOPS) buffer pH 7.4 was determined by LC-MS [31, 32].
# [5] = biological target: T1, KCa3.1 channel in A549-3R cells; assay: Staining of living A549-3R cells (Protocol 2); type: cell-based
# Method: The cells were used without fixation. After incubation of the cells for 24 h (Section 2.10.1), the medium was removed, and the cells were washed three times with 1 mL of PBS. […]
# An Axiovert 200 inverted microscope (Carl Zeiss AG, Jena, Germany) with a ×100 oil immersion objective and a digital camera (SPOT RT SE from Diagnostic Instruments Inc., Livingston, UK) were used. The camera was controlled by MetaVue software (version 6.3r6, Visitron, Germany). Two different filter sets were employed, the FITC filter set (Carl Zeiss Filter Set 10 bandwidth excitation filter 450–490, color splitter 510, bandpass filter 515–565) and the TRITC filter set (Carl Zeiss Filter Set 15, bandpass excitation filter 546/12, dichroic mirror 580, emission filter Long Pass 590).
# Using the free imaging software ImageJ (1.53f51, NIH, USA), squares with an edge length of 50 × 50 pixels, corresponding to an area of 9 µm^2, were randomly placed in a cell and signals with Full Width at Half Maximum (FWHM) of ≤5 pixels (~300 nm) were counted as a KCa3.1 channel. For the evaluation, 7 squares were analyzed.
# In the next experiment, living A549-3R cells were stained with 10b.
# [6] = living A549-3R cells, Protocol 2
structure (smiles),measurement,setting,value
"CCC1=C(C)C2=C(c3ccc(OCCOCCn4cc(COc5ccc(C(C(N)=O)(c6ccccc6)c6ccc(F)cc6)cc5)nn4)cc3)c3c(C)c(CC)c(C)n3[B-](F)(OC)[N+]2=C1C (centres unmarked) [10b, 2-{4-[(1-{2-[4-(2,6-Diethyl-4-fluoro-4-methoxy-1,3,5,7-tetramethyl-4-bora-3a,4a-diaza-s-indacen-8-yl)phenoxy]ethoxyethyl}-1,2,3-triazol-4-yl)methoxy]phenyl}-2-(4-flluorophenyl)-2-phenylacetamide]",Average Green (in % ± SD),[1]; Protocol 7a (antibody first),41.5% and 41.5 ± 4.75%
same,Average Red (in % ± SD),[1]; Protocol 7a (antibody first),58.5 ± 9.60%
same,Average Green (in % ± SD),[1]; Protocol 7b (10b first),41.4 ± 5.56%
same,Average Red (in % ± SD),[1]; Protocol 7b (10b first),58.6 ± 8.52%
same,co-staining of a single KCa3.1 channel with both imaging tools (yellow dots),[1]; distance between signal peak maxima ≤1 pixel counted as co-staining,hardly observed
same,staining pattern after preincubation with senicapoc,[2],did not lead to a punctate staining pattern
same,chromatographic logP,[3],5.8
same,logD,[4],> 5
same,staining pattern of living A549-3R cells,"[5]; Protocol 2, 10 µM, 10 min, 4 °C",distinct punctate staining pattern
same,FWHM of fluorescent dots,[5]; [6],4.89 ± 0.50 pixels
same,density of labeled KCa3.1 channels,[5]; [6],1.11 ± 0.11 KCa3.1 channels per µm^2
